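Cells were grown in 96-well plates and exposed to each compound for 48 hours at five concentrations; endpoints were interpolated linearly between bracketing concentrations, or set to the highest concentration if not reached. Here, GI50 denotes the concentration required for 50% inhibition of growth. TGI denotes the concentration required for complete inhibition of growth.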
Assays:
Test in all cases: inhibition of tumour cell growth, NCI panel, 48 h
UACC-257 melanoma = test system: UACC-257 melanoma
SK-OV-3 ovarian = test system: SK-OV-3 ovarian
HOP-62 NSCLC = test system: HOP-62 NSCLC
CCRF-CEM leukemia = test system: CCRF-CEM leukemia
NCI/ADR-RES ovarian = test system: NCI/ADR-RES ovarian
HL-60(TB) leukemia = test system: HL-60(TB) leukemia
HCT-15 colon = test system: HCT-15 colon
CAKI-1 renal = test system: CAKI-1 renal
RPMI-8226 leukemia = test system: RPMI-8226 leukemia
SNB-75 CNS = test system: SNB-75 CNS
RXF 393 renal = test system: RXF 393 renal
SNB-19 CNS = test system: SNB-19 CNS
COLO 205 colon = test system: COLO 205 colon
HS 578T breast = test system: HS 578T breast
LOX IMVI melanoma = test system: LOX IMVI melanoma
U251 CNS = test system: U251 CNS
DU-145 prostate = test system: DU-145 prostate
MALME-3M melanoma = test system: MALME-3M melanoma
SK-MEL-2 melanoma = test system: SK-MEL-2 melanoma
MDA-MB-435 = test system: MDA-MB-435
M14 melanoma = test system: M14 melanoma
OVCAR-8 ovarian = test system: OVCAR-8 ovarian
HT29 colon = test system: HT29 colon
OVCAR-4 ovarian = test system: OVCAR-4 ovarian
NCI-H23 lung = test system: NCI-H23 lung
IGROV1 ovarian = test system: IGROV1 ovarian
NCI-H522 lung = test system: NCI-H522 lung
ACHN renal = test system: ACHN renal
SN12C renal = test system: SN12C renal
EKVX NSCLC = test system: EKVX NSCLC
KM12 colon = test system: KM12 colon
NCI-H226 lung = test system: NCI-H226 lung
BT-549 breast = test system: BT-549 breast
NCI-H460 lung = test system: NCI-H460 lung
MDA-MB-231 breast = test system: MDA-MB-231 breast
K-562 leukemia = test system: K-562 leukemia
UACC-62 melanoma = test system: UACC-62 melanoma
SR leukemia = test system: SR leukemia
HCC-2998 colon = test system: HCC-2998 colon
OVCAR-3 ovarian = test system: OVCAR-3 ovarian
SK-MEL-5 melanoma = test system: SK-MEL-5 melanoma
SF-539 CNS = test system: SF-539 CNS
SF-268 CNS = test system: SF-268 CNS
A549 NSCLC = test system: A549 NSCLC
UO-31 renal = test system: UO-31 renal
PC-3 prostate = test system: PC-3 prostate
A498 renal = test system: A498 renal
OVCAR-5 ovarian = test system: OVCAR-5 ovarian
SW-620 colon = test system: SW-620 colon
TK-10 renal = test system: TK-10 renal
SF-295 CNS = test system: SF-295 CNS
HCT-116 colon = test system: HCT-116 colon
HOP-92 NSCLC = test system: HOP-92 NSCLC
T-47D breast = test system: T-47D breast
SK-MEL-28 melanoma = test system: SK-MEL-28 melanoma
MOLT-4 leukemia = test system: MOLT-4 leukemia
786-0 renal = test system: 786-0 renal

Cc1ccc2c(n1)C(=O)C(Cl)=C(Nc1cccc(C(C)C)c1)C2=O
GI50 (UACC-257 melanoma): 1.59 µM
TGI (UACC-257 melanoma): 3.07 µM
GI50 (SK-OV-3 ovarian): 13.2 µM
TGI (SK-OV-3 ovarian): 26.7 µM
GI50 (HOP-62 NSCLC): 2.7 µM
TGI (HOP-62 NSCLC): 10.8 µM
GI50 (CCRF-CEM leukemia): 2.36 µM
TGI (CCRF-CEM leukemia): 19.9 µM
GI50 (NCI/ADR-RES ovarian): 2.49 µM
TGI (NCI/ADR-RES ovarian): 9.13 µM
GI50 (HL-60(TB) leukemia): 1.73 µM
TGI (HL-60(TB) leukemia): 6.41 µM
GI50 (HCT-15 colon): 1.43 µM
TGI (HCT-15 colon): 3.36 µM
GI50 (CAKI-1 renal): 1.88 µM
TGI (CAKI-1 renal): 6.22 µM
GI50 (RPMI-8226 leukemia): 1.5 µM
TGI (RPMI-8226 leukemia): 5.18 µM
GI50 (SNB-75 CNS): 1.4 µM
TGI (SNB-75 CNS): 3.19 µM
GI50 (RXF 393 renal): 1.29 µM
TGI (RXF 393 renal): 2.56 µM
GI50 (SNB-19 CNS): 3.23 µM
TGI (SNB-19 CNS): 13.6 µM
GI50 (COLO 205 colon): 3.33 µM
TGI (COLO 205 colon): 12.1 µM
GI50 (HS 578T breast): 2.29 µM
TGI (HS 578T breast): 6.16 µM
GI50 (LOX IMVI melanoma): 0.698 µM
TGI (LOX IMVI melanoma): 2.54 µM
GI50 (U251 CNS): 2.94 µM
TGI (U251 CNS): 11.1 µM
GI50 (DU-145 prostate): 1.86 µM
TGI (DU-145 prostate): 3.82 µM
GI50 (MALME-3M melanoma): 1.65 µM
TGI (MALME-3M melanoma): 3.18 µM
GI50 (SK-MEL-2 melanoma): 3.72 µM
TGI (SK-MEL-2 melanoma): 12.8 µM
GI50 (MDA-MB-435): 1.71 µM
TGI (MDA-MB-435): 3.16 µM
GI50 (M14 melanoma): 2.94 µM
TGI (M14 melanoma): 10.1 µM
GI50 (OVCAR-8 ovarian): 2.53 µM
TGI (OVCAR-8 ovarian): 8.97 µM
GI50 (HT29 colon): 3.84 µM
TGI (HT29 colon): 31.4 µM
GI50 (OVCAR-4 ovarian): 1.35 µM
TGI (OVCAR-4 ovarian): 2.64 µM
GI50 (NCI-H23 lung): 1.58 µM
TGI (NCI-H23 lung): 4.55 µM
GI50 (IGROV1 ovarian): 1.56 µM
TGI (IGROV1 ovarian): 3.1 µM
GI50 (NCI-H522 lung): 2.25 µM
TGI (NCI-H522 lung): 5.6 µM
GI50 (ACHN renal): 1.69 µM
TGI (ACHN renal): 3.12 µM
GI50 (SN12C renal): 1.76 µM
TGI (SN12C renal): 4.54 µM
GI50 (EKVX NSCLC): 1.59 µM
TGI (EKVX NSCLC): 3.24 µM
GI50 (KM12 colon): 4.94 µM
TGI (KM12 colon): 28.6 µM
GI50 (NCI-H226 lung): 1.48 µM
TGI (NCI-H226 lung): 3.59 µM
GI50 (BT-549 breast): 2.45 µM
TGI (BT-549 breast): 10.8 µM
GI50 (NCI-H460 lung): 3.42 µM
TGI (NCI-H460 lung): 13.5 µM
GI50 (MDA-MB-231 breast): 1.37 µM
TGI (MDA-MB-231 breast): 3.01 µM
GI50 (K-562 leukemia): 2.47 µM
TGI (K-562 leukemia): > 100 µM
GI50 (UACC-62 melanoma): 2.05 µM
TGI (UACC-62 melanoma): 4.64 µM
GI50 (SR leukemia): 1.63 µM
TGI (SR leukemia): > 100 µM
GI50 (HCC-2998 colon): 3.95 µM
TGI (HCC-2998 colon): 13.7 µM
GI50 (OVCAR-3 ovarian): 0.617 µM
TGI (OVCAR-3 ovarian): 2.91 µM
GI50 (SK-MEL-5 melanoma): 1.67 µM
TGI (SK-MEL-5 melanoma): 3.06 µM
GI50 (SF-539 CNS): 1.71 µM
TGI (SF-539 CNS): 3.15 µM
GI50 (SF-268 CNS): 3.17 µM
TGI (SF-268 CNS): 34.6 µM
GI50 (A549 NSCLC): 3.66 µM
TGI (A549 NSCLC): 14 µM
GI50 (UO-31 renal): 1.49 µM
TGI (UO-31 renal): 2.83 µM
GI50 (PC-3 prostate): 2.17 µM
TGI (PC-3 prostate): 16.3 µM
GI50 (A498 renal): 6.56 µM
TGI (A498 renal): 19.9 µM
GI50 (OVCAR-5 ovarian): 2.17 µM
TGI (OVCAR-5 ovarian): 4.55 µM
GI50 (SW-620 colon): 1.94 µM
TGI (SW-620 colon): 4.03 µM
GI50 (TK-10 renal): 4.67 µM
TGI (TK-10 renal): 13.8 µM
GI50 (SF-295 CNS): 3.5 µM
TGI (SF-295 CNS): 11.5 µM
GI50 (HCT-116 colon): 1.52 µM
TGI (HCT-116 colon): 3.55 µM
GI50 (HOP-92 NSCLC): 1.76 µM
TGI (HOP-92 NSCLC): 3.58 µM
GI50 (T-47D breast): 1.61 µM
TGI (T-47D breast): 4.15 µM
GI50 (SK-MEL-28 melanoma): 2.4 µM
TGI (SK-MEL-28 melanoma): 5.58 µM
GI50 (MOLT-4 leukemia): 2.27 µM
TGI (MOLT-4 leukemia): > 100 µM
GI50 (786-0 renal): 2.18 µM
TGI (786-0 renal): 5.44 µM

Reference: PubChem BioAssay (NCI)
